For test [1], the system named is photoreceptors. In words: TUNEL-positive photoreceptors in ONL after experimental retinal detachment. The class given is in vivo, rat.
In test [2] the test system is photoreceptors. In words: Normalized ONL thickness ratio after experimental retinal detachment. Type of test: in vivo, rat. The conditions noted are these: subretinal Z-VAD 300 μM and/or Nec-1 400 μM. The protocol:
Photoreceptor death was also assessed by TUNEL analysis at three days after retinal detachment in retina treated with either vehicle, Nec-1, Z-VAD or Nec-1+Z-VAD. […] Nine sections for each eye specimen were randomly selected, and the central area of detached retina and the mid-peripheral region of attached retina were photographed. The ONL thickness ratio was measured at ten points in each section by masked observers. […] (GCL: ganglion cell layer, INL: inner nuclear layer. *, P<0.05. Scale bar, 100 μm). […]
TNF-α protein contents in rat retina were determined using ELISA Kit for rat TNF-α (Invitrogen, Carlsbad, Calif.). Goat anti-mouse/rat TNF-α blocking antibody was purchased from R&D Systems (Minneapolis, Minn.). The rat eyes were subretinally injected with 1% of sodium hyaluronate containing 0.1 mg/ml of anti-TNF-α antibody or control antibody.

The subject of test [3] is photoreceptors. Nature of the test: Normalized ONL thickness ratio after retinal detachment in RIP-3−/− mice. The conditions noted are these: five days after retinal detachment, RIP-3−/− mice.
Method: TUNEL assays were used to measure the amount of apoptotic and necrotic cell death (Grasl-Kraupp et al., HEPTALOGY (1995) 21(5):1465-8). TUNEL and quantification of TUNEL positive cells in ONL were performed as described above by using the ApopTag Fluorescein In Situ Apoptosis Detection Kit (Millipore, Billerica, Mass.). The ratio of the ONL thickness to the thickness of neuroretina in the central area of the detached retina was determined by National Institutes of Health ImageJ software and standardized by that in the attached retina. The data are expressed as normalized ONL thickness ratio [(ONL/neuroretina thickness in detached retina)/(ONL/neuroretina thickness in attached retina)].
The test system of test [4] is photoreceptors. In words: Poly I:C-induced dry AMD model, TUNEL-positive cells in ONL. The conditions noted are these: compared with vehicle. Type of test: in vivo, mice. From the text: (§1) In this example, the mechanism of photoreceptor cell death in dry AMD was investigated using a polyinosinic:polycytidylic acid (Poly I:C)-induced dry AMD model (Yang et al. (2009) NEJM 359(14):1456-63). Poly I:C is a synthetic double-stranded RNA (dsRNA) analog that activates toll-like receptor 3 (TLR3) signaling (FIG. 20A). Furthermore, dsRNA are known to exist in the drusen of human AMD patients. As depicted in FIG. 20A, activation of the TLR3 signaling results in activation of RIP-1 kinase pathway. […] In the experiments described herein, 2-3 μl of Poly I:C (1 mg/ml) was injected into the subretinal space of the eye (e.g., approximately 2-3 μg of Poly I:C was administered to the eye) to induce AMD.
The thickness of the ONL was determined by the National Institutes of Health ImageJ software. […] Specifically, the number of TUNEL-positive cells in the RIP-3−/− mice treated with poly I:C was at least three fold less than control mice consistent with RIP-3 playing a role in mediating programmed necrosis in AMD (FIG. 22B).
(§2) To determine the effect of Nec-1 and a pan-caspase inhibitor in the treatment of AMD, TUNEL assay was performed to assess photoreceptor cell death in the poly I:C induced AMD model. […] The thickness of ONL was also measured.

The next test relates to primary RPE cells. Nature of the test: Viability of primary RPE cells treated with poly I:C (Cell Counting Kit-8). The conditions noted are these: WT primary RPE cells, 5 μg/ml poly I:C for 48 hours. The class given is cell-based, mice. The protocol:
As described in Example 11, primary RPE cells were extracted from the retina of mice and cultured in the presence of 5 μg/ml of poly I:C for 48 hours or with PBS. Cell viability was measured using Cell Counting Kit-8 (Dojindo Laboratories, Kumamoto, Japan). This assay is based on the cleavage of 2-(2-methoxy-4-nitrophenyl)-3-(4-nitrophenyl)-5-(2,4-disulfophenyl)-2H-tetrazolium, monosodium salt (WST-8) by the mitochondrial dehydrogenase enzyme to produce a formazan dye. After incubation with WST-8 for two hours at 37° C., absorbance was measured at 450 nm to determine cell viability.
On the technique in general: Tetrazolium assays rely on reduction of a dye to a coloured formazan, in cell work by metabolically active cells.

Test [5] concerns photoreceptors. In words: TUNEL-positive cells after retinal detachment in RIP-3−/− mice. The class given is in vivo. Conditions: three days after retinal detachment.
Method: The role of RIP-3 in RIP-mediated programmed necrosis in photoreceptor loss after retinal detachment was investigated in RIP-3 knockout (RIP-3−/−) mice. TUNEL assays were used to measure the amount of apoptotic and necrotic cell death (Grasl-Kraupp et al., HEPTALOGY (1995) 21(5):1465-8). TUNEL and quantification of TUNEL positive cells in ONL were performed as described above by using the ApopTag Fluorescein In Situ Apoptosis Detection Kit (Millipore, Billerica, Mass.).
Test [6] concerns photoreceptors. Nature of the test: TEM quantification of apoptotic and necrotic photoreceptor death after retinal detachment. The class given is in vivo. Conditions: day three after retinal detachment, ONL. The method, then: The morphology of photoreceptors after retinal detachment was examined by transmission electron microscopy (TEM) and propidium iodide (PI) staining and the effect of treatment with Z-VAD and/or a Nec-1 compound of Formula I-C was analyzed.
TEM was performed as previously described (Hisatomi T et al. (2008). J. CLIN. INVEST. 118:2025-2038). […] Over 200 photoreceptors each eye were photographed and subjected to quantification of cell death modes in a masked fashion. Photoreceptors showing cellular shrinkage and nuclear condensation were defined as apoptotic cells, while photoreceptors associated with cellular and organelle swelling and discontinuities in nuclear and plasma membrane were defined as necrotic cells. The presence of electron-dense granular materials were reported to occur subsequent to both apoptotic and necrotic cell death and cells with these findings were labeled simply as end-stage cell death/unclassified (Hisatomi T et al. (2003) AM. J. PATHOL. 162:1869-1879; Erickson P A et al. (1983) INVEST. OPHTHALMOL. VIS. SCI. 24:927-942).
On day three after retinal detachment, photoreceptor death caused by apoptosis was almost twice that caused by necrosis in vehicle-treated retina (% apoptotic cells: 21.7±1.3%, necrotic cells: 13.3±1.0%, unclassified: 4.4±1.4%; FIGS. 7A and 7E).

Test [7] relates to photoreceptors. In words: Poly I:C-induced dry AMD model, ONL thickness. The class given is in vivo, mice.
Excerpt: as §1
The thickness of the outer nuclear layer (ONL) was also determined in WT or RIP-3−/− mice at 14 days following treatment with poly I:C. Sections were randomly selected from either WT or RIP-3−/− mice following poly I:C treatment and the retina was photographed. The ONL thickness was measured in each section by masked observers.
as §2

The subject of a further test is NF-κB p65. In words: Western blot for phospho-NF-κB p65 after retinal detachment. The class given is in vivo. From the text: FIG. 16 is a photograph of an immunoblot from a Western blot analysis for phospho-NFκB p65 in control retina without a retinal detachment and in retina three days after retinal detachment with treatment of vehicle, Z-VAD or Z-VAD+Nec-1 (lane-loading differences were normalized by the level of β-tubulin).
The vitreous and neural retina combined was collected on day 3 after retinal detachment. Samples were run on 4-12% SDS-polyacrylamide gel electrophoresis and transferred onto PVDF membrane. After blocking with 3% nonfat dried milk, the membrane was reacted with RIP-3 (1:10000; Sigma, Saint Louis, […].), RIP-1 (1:2000; BD Biosciences), phosphoserine (1:2000; Enzo, Plymouth Meeting, Pa.) or anti-phosphorylated NF-κB p65 (1:1000; Cell signaling) antibody. Membranes were then developed with enhanced chemiluminescence. Lane-loading differences were normalized by β-tubulin (1:1000; Cell Signaling).
For Western Blot analysis, the vitreous and neural retina combined, were collected at three days after retinal detachment. Samples were run on 4-12% SDS-polyacrylamide gel electrophoresis and transferred onto PVDF membrane. After blocking with 3% nonfat dried milk, the membrane was reacted with anti-light chain 3 antibody (1:1000; Cell signaling), anti-phosphorylated ribosomal protein S6 antibody (1:1000; Cell Signaling) or anti-phosphorylated NF-κB p65 antibody (1:1000; Cell Signaling). […]

For the molecule `C[C@H](NC(=O)C(=O)Nc1ccccc1C(C)(C)C)C(=O)N[C@@H](CC(=O)O)C(=O)COc1c(F)c(F)cc(F)c1F` [IDN-6556, (3-{2-[(2-tert-butyl-phenylaminooxalyl)-amino]-propionylamino}-4-oxo-5-(2,3,5,6-tetrafluoro-phenoxy)-pentanoic acid)], the “neuroprotective effect / photoreceptor loss (TUNEL-positive photoreceptors and ONL thickness ratio)” value in the test with photoreceptors [1] (day three after retinal detachment in rats, subretinal injection) is “did not show any neuroprotective effect”.
Consider `CN1C(=O)NC(Cc2c[nH]c3c(Cl)cccc23)C1=O` (stereo not shown) [Nec-1], for which the “normalized ONL thickness ratio” value in the test on photoreceptors [2] (five days after retinal detachment) was found to be 0.58±0.12. The “normalized ONL thickness ratio” value in the test on photoreceptors [2] (three days after retinal detachment) worked out at 0.71±0.09. In addition, the “normalized ONL thickness ratio” value in the test with photoreceptors [3] worked out at 0.761±0.049. In addition, in the test on photoreceptors [4], the “number of TUNEL-positive cells in ONL” value was “slight effect”. Further, the “viability of RPE cells” value with primary RPE cells was “did not protect RPE cells”. For the same molecule, the “number of TUNEL-positive cells” value in the test on photoreceptors [5] is reported as 786.7±278.7 cells/mm^2. Further, the “number of TUNEL-positive cells in the ONL” value in the test on photoreceptors [1] (day three after retinal detachment, subretinal Z-VAD 300 μM and/or Nec-1 400 μM at detachment) is on record as 1067.5±95.5 cells/mm^2. Further, in the test with photoreceptors [6], the “% apoptotic cells (TEM)” value came out at 19.8±2.0%; the “% necrotic cells (TEM)” value was found to be 13.1±1.4%; the “% unclassified (end-stage cell death, TEM)” value is recorded as 2.8±0.4%. The ONL thickness result in the test on photoreceptors [7] is “minimal effect”. The “NF-κB p65 phosphorylation” value in the test on NF-κB p65 is recorded as “no effect”.

The values above are taken from US10639345B2, “Compositions for preserving photoreceptor cells, retinal pigment epithelial cells, or visual function” (Massachusetts Eye and Ear Infirmary, priority 2010, dated 2020).
